Measurements reported in patent US5326566A, “Use of dibutyl adipate and isopropyl myristate in topical and transdermal products” (Bristol-Myers Squibb Company, priority 1993, dated 1994).
Like-named read-outs stand apart in the source and are kept apart here.

Experiments:
[1] = literature (Martindale) for dimethyl sulfoxide; cited from earlier work
[2] = Excerpt: Only skin that appeared normal was used.
Halobetasol propionate is commercially available by Bristol-Myers Squibb as ULTRAVATE® Cream and ULTRAVATE® Ointment. ULTRAVATE® Cream is an oil-in-water emulsion containing isopropyl palmitate and isopropyl isostearate as emollients. The ULTRAVATE® Ointment is a nonaqueous emulsion of propylene glycol in a petrolatum base.
In a different human skin study, the in vitro skin penetration of halobetasol propionate from ULTRAVATE® Ointment, FN8-1114-16 cream and FN8-1114-13 cream, was evaluated (see Table 3, Study II). ULTRAVATE® Ointment was used as a control in order to normalize the data, and to assist in the comparison of skin penetration of different formulations when evaluated for skin penetration in different human skin.

[3] = applied topically; more pronounced in occluded condition; cited from earlier work
[4] = prior art skin permeation enhancers; cited from earlier work
[5] = test system: utriculi of rhino mouse skin; assay: Rhino mouse utriculi model (efficacy of tretinoin formulations, reduction of utriculi diameter); assay type: in vivo; settings: topical, once a day for five days, FIG. 4
Protocol: Female rhino mice were obtained from the Skin and Cancer Hospital, Temple University, Philadelphia, Pennsylvania. Upon receipt, the rhino mice were treated with an anti-parasitic agent, trichlorfon (COMBOT®), to rid them of pinworms. It was administered in their drinking water for two weeks. An additional two weeks was allowed to pass without COMBOT® treatment before mice were placed on study. Animals were housed in accordance with the National Institute of Health guidelines and had free access to food and water. At the time of the study initiation, the mice were 9-14 weeks old.
The mice were individually housed in a plastic shoe box cage with corn cob bedding and placed in rooms illuminated with yellow lights, cycled for 12 hours on and 12 hours off during the study. […]
The sheets were then evaluated for changes in the sizes of the utriculi as follows: The maximum diameter of 20 representative utriculi per tissue sample were measured, using an IBM PC computer image measurement program (Microscience, Inc., Federal Way, Washington D.C.) and an Olympus microscope (200×magnification). Retinoid effects were evaluated as a percent reduction in uterine diameter by comparing mean diameter of the vehicle treated groups to that of formulation treated groups.

[6] = Saturation / degree of unsaturation of the oil phase; assay type: physicochemical; settings: 0.5 wt % DBA and 10 wt % IPM as solvents in the oil phase
Description: A degree of unsaturation of 1.5 means that the amount of DBA, or DBA and IPM, present in the oil phase is one and a half times the amount required to dissolve the halobetasol propionate in the oil phase of the composition so that the final oil phase of the composition is saturated with respect to the halobetasol propionate, plus contains a 50% excess of such solvent(s).
An unsaturation value of 1.5 means the oil phase of the final composition contains more of the solvent system of the present invention than the minimum required to make such oil phase saturated, saturation of course being relative to the halobetasol propionate. The 1.5 unsaturation value indicates the oil phase of the final composition contains 11/2 times the amount of solvent system required to produce a final composition the oil phase of which is saturated with respect to halobetasol propionate (in other words, the oil phase of the final composition contains a 50% surplus of the solvent system of the invention).

For `CN(C)C=O` [Dimethyl formamide, dimethyl formamide], which “side effects, in words” value [1] is on record?
Its value is “cause a sensation of burning and erythema on the skin”.

For `CC(O)CO` (stereo not drawn) [PG, propylene glycol], which “skin penetration enhancement of halobetasol propionate by solvent/enhancer, in words” value [2] is on record?
Its value is “does not improve the skin penetration of halobetasol propionate any further”.

And the “irritation/sensitization, in words” value [3]?
Its value is “can be a sensitizer and irritant when applied topically”.

With `CCCCCCCCCC[S+](C)[O-]` (stereo not drawn) [decyl methyl sulfoxide] as the molecule, how does the “skin permeation of oil-soluble drugs, in words” value [4] read?
Its value is “generally do not increase skin permeation of oil-soluble drugs”.

With `CCCCOC(=O)CCCCC(=O)OCCCC` [dibutyl adipate] as the molecule, how does the “efficacy of tretinoin formulations (rank order / activity in words)” value [5] read?
The value was “increases the efficacy and hence the topical bioavailability of tretinoin”.

With `C[S+](C)[O-]` [dimethyl sulfoxide] as the molecule, how does the “side effects, in words” value [1] read?
Its value is “causes in animals a foul taste and body odor, burning and erythema on the skin, a reduction in the relucency of the lens cortex and tissue necrosis”.

Which “saturated solution of halobetasol propionate in the oil phase” value [6] does the source give for `CCC(=O)O[C@]1(C(=O)CCl)[C@@H](C)C[C@H]2[C@@H]3C[C@H](F)C4=CC(=O)C=C[C@]4(C)[C@@]3(F)[C@@H](O)C[C@@]21C` [halobetasol propionate] here?
Its value is 0.05 wt %.

For `CC(C)CCCCCCCCCCCCCCC(=O)OC(C)C` [isopropyl isostearate], which “skin penetration enhancement of halobetasol propionate by solvent/enhancer, in words” value [2] is on record?
Its value is “did not enhance the penetration of halobetasol propionate from ULTRAVATE® Cream as compared to ULTRAVATE® Ointment”.

With `CCCCCCCCCCCCCCCC(=O)OC(C)C` [isopropyl palmitate] as the molecule, how does the “skin penetration enhancement of halobetasol propionate by solvent/enhancer, in words” value ([2]; conclusions from Study I and Study II) read?
Its value is “did not enhance the penetration of halobetasol propionate from ULTRAVATE® Cream as compared to ULTRAVATE® Ointment”.
